In brackets after ≈: the same amount, converted by molar mass. Read-outs that look alike come from different tables or passages of the source.
How the values were obtained:
[1] = test system: non-fermenting gram negative bacilli (NFGNB), excluding P. aeruginosa; assay: Phase 2 study: non-fermenting gram negative bacilli density in sputum; assay type: in vivo
Method: The following dosage regimens (as nebulizer loaded doses) were evaluated: 120 mg QD (daily); 240 mg QD (daily); and 240 mg BID (twice daily). Based on aerosol characterization studies of the 100 mg/ml formulation, these loaded doses of 120 and 240 mg correspond estimated respirable delivered doses (RDDs) using a PART eFlow nebulizer of about 65 and 130 mg, respectively.
Patients were assessed on Day 1, 7, 14, and 28, and then up to 28 days after completion of study drug, namely, Days 42 and 56. The end of the study was defined as the last visit of the last patient. Study populations included: (1) safety/modified intent to treat (MITT) population which included all patients enrolled in the study that receive at least one dose of study drug; (2) efficacy evaluable (EE) population which included all patients enrolled in the study without major protocol violations that receive at least 80% of study drug doses during the 28 days of study drug therapy; and (3) pharmacokinetic (PK) population which included all patients that receive at least one dose of study drug and have at least one PK blood sample collected.
Changes in P. aeruginosa density (log lo CFU/g sputum) for sputum samples taken from the EE and MITT populations are summarized in Tables 10 and 11, respectively (SD=standard deviation). […] Tables 18 and 19 summarize changes in non-fermenting gram negative bacilli density (NFGNB), excluding P. aeruginosa, with only patients with positive NFGNB counts at baseline, for EE and MITT populations, respectively. Tables 20 and 21 summarize changes for presumptive S. aureus density (log10 CFU/g sputum) for only patients with positive S. aureus counts at baseline, for EE and MITT populations, respectively.

[2] = test system: B. cepacia; assay: Levofloxacin MIC against B. cepacia; assay type: cell-based; details: Burkholderia cepacia
[3] = EE population, Combined 240 mg QD and BID
[4] = EE population, Combined Levofloxacin
[5] = MITT population, Combined 240 mg QD and BID
[6] = MITT population, Combined Levofloxacin

C[C@H]1COc2c(N3CCN(C)CC3)c(F)cc3c(=O)c(C(=O)O)cn1c23 [Levofloxacin, levofloxacin]
NFGNB density, Change from Baseline to Day 7, Mean ([1]; EE population, 120 mg QD): −1.15 log10 CFU/g sputum | NFGNB density, Day 1, Mean ([1]; EE population, 120 mg QD): 5.69 log10 CFU/g sputum | NFGNB density, Day 7, Mean ([1]; EE population, 120 mg QD): 4.54 log10 CFU/g sputum | NFGNB density, Day 14, Mean ([1]; EE population, 120 mg QD): 3.15 log10 CFU/g sputum | NFGNB density, Day 28, Mean ([1]; EE population, 120 mg QD): 5.10 log10 CFU/g sputum | NFGNB density, Change from Baseline to Day 28, Mean ([1]; EE population, 120 mg QD, Day 14): −2.54 log10 CFU/g sputum | NFGNB density, Change from Baseline to Day 28, Mean ([1]; EE population, 120 mg QD, Day 28): −1.44 log10 CFU/g sputum | NFGNB density, Change from Baseline to Day 7, Mean ([1]; EE population, 240 mg BID): −0.51 log10 CFU/g sputum | NFGNB density, Day 1, Mean ([1]; EE population, 240 mg BID): 5.52 log10 CFU/g sputum | NFGNB density, Day 7, Mean ([1]; EE population, 240 mg BID): 5.01 log10 CFU/g sputum | NFGNB density, Day 14, Mean ([1]; EE population, 240 mg BID): 6.02 log10 CFU/g sputum | NFGNB density, Day 28, Mean ([1]; EE population, 240 mg BID): 5.01 log10 CFU/g sputum | NFGNB density, Change from Baseline to Day 28, Mean ([1]; EE population, 240 mg BID, Day 14): 0.50 log10 CFU/g sputum | NFGNB density, Change from Baseline to Day 28, Mean ([1]; EE population, 240 mg BID, Day 28): −0.51 log10 CFU/g sputum | NFGNB density, Change from Baseline to Day 7, Mean ([1]; EE population, 240 mg QD): −2.47 log10 CFU/g sputum | NFGNB density, Day 1, Mean ([1]; EE population, 240 mg QD): 4.65 log10 CFU/g sputum | NFGNB density, Day 7, Mean ([1]; EE population, 240 mg QD): 2.18 log10 CFU/g sputum | NFGNB density, Day 14, Mean ([1]; EE population, 240 mg QD): 2.04 log10 CFU/g sputum | NFGNB density, Day 28, Mean ([1]; EE population, 240 mg QD): 1.36 log10 CFU/g sputum | NFGNB density, Change from Baseline to Day 28, Mean ([1]; EE population, 240 mg QD, Day 14): −2.61 log10 CFU/g sputum | NFGNB density, Change from Baseline to Day 28, Mean ([1]; EE population, 240 mg QD, Day 28): −3.29 log10 CFU/g sputum | NFGNB density, Change from Baseline to Day 7, Mean [1, 3]: −1.60 log10 CFU/g sputum | NFGNB density, Day 1, Mean [1, 3]: 5.03 log10 CFU/g sputum | NFGNB density, Day 7, Mean [1, 3]: 3.44 log10 CFU/g sputum | NFGNB density, Day 14, Mean [1, 3]: 3.80 log10 CFU/g sputum | NFGNB density, Day 28, Mean [1, 3]: 2.98 log10 CFU/g sputum | NFGNB density, Change from Baseline to Day 28, Mean ([1]; EE population, Combined 240 mg QD and BID, Day 14): −1.23 log10 CFU/g sputum | NFGNB density, Change from Baseline to Day 28, Mean ([1]; EE population, Combined 240 mg QD and BID, Day 28): −2.05 log10 CFU/g sputum | NFGNB density, Change from Baseline to Day 7, Mean [1, 4]: −1.44 log10 CFU/g sputum | NFGNB density, Day 1, Mean [1, 4]: 5.27 log10 CFU/g sputum | NFGNB density, Day 7, Mean [1, 4]: 3.83 log10 CFU/g sputum | NFGNB density, Day 14, Mean [1, 4]: 3.57 log10 CFU/g sputum | NFGNB density, Day 28, Mean [1, 4]: 3.63 log10 CFU/g sputum | NFGNB density, Change from Baseline to Day 28, Mean ([1]; EE population, Combined Levofloxacin, Day 14): −1.70 log10 CFU/g sputum | NFGNB density, Change from Baseline to Day 28, Mean ([1]; EE population, Combined Levofloxacin, Day 28): −1.87 log10 CFU/g sputum | NFGNB density, Change from Baseline to Day 7, Mean ([1]; MITT population, 120 mg QD): −1.15 log10 CFU/g sputum | NFGNB density, Day 1, Mean ([1]; MITT population, 120 mg QD): 5.69 log10 CFU/g sputum | NFGNB density, Day 7, Mean ([1]; MITT population, 120 mg QD): 4.54 log10 CFU/g sputum | NFGNB density, Day 14, Mean ([1]; MITT population, 120 mg QD): 3.25 log10 CFU/g sputum | NFGNB density, Day 28, Mean ([1]; MITT population, 120 mg QD): 5.10 log10 CFU/g sputum | NFGNB density, Change from Baseline to Day 28, Mean ([1]; MITT population, 120 mg QD, Day 14): −2.54 log10 CFU/g sputum | NFGNB density, Change from Baseline to Day 28, Mean ([1]; MITT population, 120 mg QD, Day 28): −1.44 log10 CFU/g sputum | NFGNB density, Change from Baseline to Day 7, Mean ([1]; MITT population, 240 mg BID): −0.42 log10 CFU/g sputum | NFGNB density, Day 1, Mean ([1]; MITT population, 240 mg BID): 6.05 log10 CFU/g sputum | NFGNB density, Day 7, Mean ([1]; MITT population, 240 mg BID): 5.63 log10 CFU/g sputum | NFGNB density, Day 14, Mean ([1]; MITT population, 240 mg BID): 6.50 log10 CFU/g sputum | NFGNB density, Day 28, Mean ([1]; MITT population, 240 mg BID): 5.63 log10 CFU/g sputum | NFGNB density, Change from Baseline to Day 28, Mean ([1]; MITT population, 240 mg BID, Day 14): 0.45 log10 CFU/g sputum | NFGNB density, Change from Baseline to Day 28, Mean ([1]; MITT population, 240 mg BID, Day 28): −0.43 log10 CFU/g sputum | NFGNB density, Change from Baseline to Day 7, Mean ([1]; MITT population, 240 mg QD): −2.73 log10 CFU/g sputum | NFGNB density, Day 1, Mean ([1]; MITT population, 240 mg QD): 5.26 log10 CFU/g sputum | NFGNB density, Day 7, Mean ([1]; MITT population, 240 mg QD): 2.52 log10 CFU/g sputum | NFGNB density, Day 14, Mean ([1]; MITT population, 240 mg QD): 3.08 log10 CFU/g sputum | NFGNB density, Day 28, Mean ([1]; MITT population, 240 mg QD): 2.77 log10 CFU/g sputum | NFGNB density, Change from Baseline to Day 28, Mean ([1]; MITT population, 240 mg QD, Day 14): −2.18 log10 CFU/g sputum | NFGNB density, Change from Baseline to Day 28, Mean ([1]; MITT population, 240 mg QD, Day 28): −2.49 log10 CFU/g sputum | NFGNB density, Change from Baseline to Day 7, Mean [1, 5]: −1.77 log10 CFU/g sputum | NFGNB density, Day 1, Mean [1, 5]: 5.59 log10 CFU/g sputum | NFGNB density, Day 7, Mean [1, 5]: 3.82 log10 CFU/g sputum | NFGNB density, Day 14, Mean [1, 5]: 4.50 log10 CFU/g sputum | NFGNB density, Day 28, Mean [1, 5]: 3.96 log10 CFU/g sputum | NFGNB density, Change from Baseline to Day 28, Mean ([1]; MITT population, Combined 240 mg QD and BID, Day 14): −1.08 log10 CFU/g sputum | NFGNB density, Change from Baseline to Day 28, Mean ([1]; MITT population, Combined 240 mg QD and BID, Day 28): 1.63 log10 CFU/g sputum | NFGNB density, Change from Baseline to Day 7, Mean [1, 6]: −1.59 log10 CFU/g sputum | NFGNB density, Day 1, Mean [1, 6]: 5.62 log10 CFU/g sputum | NFGNB density, Day 7, Mean [1, 6]: 4.03 log10 CFU/g sputum | NFGNB density, Day 14, Mean [1, 6]: 4.11 log10 CFU/g sputum | NFGNB density, Day 28, Mean [1, 6]: 4.24 log10 CFU/g sputum | NFGNB density, Change from Baseline to Day 28, Mean ([1]; MITT population, Combined Levofloxacin, Day 14): −1.51 log10 CFU/g sputum | NFGNB density, Change from Baseline to Day 28, Mean ([1]; MITT population, Combined Levofloxacin, Day 28): −1.58 log10 CFU/g sputum | MIC [2]: > 128 µg/mL | MIC ([2]; five strains tested in mouse model, read-out: MICs of five B. cepacia strains): 0.25 to 8 µg/mL (≈ 0.692 to 22.1 µM) | MIC ([2]; strain BC1012, read-out: MIC): 4 µg/mL (≈ 11.1 µM) | MIC ([2]; strain BC1013, read-out: MIC): 0.25 µg/mL (≈ 0.692 µM) | MIC ([2]; strain BC1014, read-out: MIC): 1 µg/mL (≈ 2.77 µM) | MIC ([2]; strain BC1020, read-out: MIC): 8 µg/mL (≈ 22.1 µM) | MIC ([2]; strain BC1021, read-out: MIC): 8 µg/mL (≈ 22.1 µM)

Source: patent US10792289B2 (Horizon Orphan LLC, priority 2009, dated 2020)
